Results from ChEMBL document CHEMBL1201862, “PubChem BioAssay data set” (2004).
Calls of active or inactive are those of the source.

How the values were obtained:
Cytochrome P450 3A4 = Cytochrome P450 3A4 (Homo sapiens, UniProt P08684);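 note: CYP3A4 tested as one member of a cytochrome P450 panel screen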
[1] = NIH3T3 cell viability loss – ATP luminescence, mouse fibroblasts, counter-screen, dose response (AID 2010); type: functional, cell-based;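 note: cells exposed to compound for about 90 hours before reading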
[2] = Trypanosoma cruzi growth suppression in host cells – NIH3T3 host cells, beta-gal luminescence, confirmation (AID 2044); type: functional, cell-based;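 note: intracellular parasites grown in NIH/3T3 mouse fibroblasts as host cells; luminescent beta-galactosidase reporter signal from transgenic T. cruzi replicating inside host cells; inhibitors lower the luminescence signal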
Cytochrome P450 2C9 = Cytochrome P450 2C9 (Homo sapiens, UniProt P11712)
Chain of Cytochrome P450 2C9 (P11712 whole entry): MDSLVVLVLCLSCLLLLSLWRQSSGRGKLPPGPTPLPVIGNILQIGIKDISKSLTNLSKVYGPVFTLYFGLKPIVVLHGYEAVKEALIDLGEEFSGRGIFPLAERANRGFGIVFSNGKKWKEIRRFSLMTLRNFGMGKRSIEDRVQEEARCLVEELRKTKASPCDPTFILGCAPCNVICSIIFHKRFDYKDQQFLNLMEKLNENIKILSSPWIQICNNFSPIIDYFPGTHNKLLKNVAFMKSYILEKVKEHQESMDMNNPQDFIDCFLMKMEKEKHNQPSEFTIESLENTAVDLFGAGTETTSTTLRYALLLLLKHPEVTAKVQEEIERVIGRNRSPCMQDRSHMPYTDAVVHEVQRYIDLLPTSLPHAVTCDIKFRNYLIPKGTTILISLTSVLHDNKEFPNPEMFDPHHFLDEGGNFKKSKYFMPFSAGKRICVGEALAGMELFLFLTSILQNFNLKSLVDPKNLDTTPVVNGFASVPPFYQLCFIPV

Cytochrome P450 2C19 = Cytochrome P450 2C19 (Homo sapiens, UniProt P33261); assay: Cytochrome panel assay with activity outcomes. Panel member name: p450-cyp2c19 Compounds with AC50 equal or less than 10 uM are considered active; type: functional
Chain of Cytochrome P450 2C19 (P33261 whole entry): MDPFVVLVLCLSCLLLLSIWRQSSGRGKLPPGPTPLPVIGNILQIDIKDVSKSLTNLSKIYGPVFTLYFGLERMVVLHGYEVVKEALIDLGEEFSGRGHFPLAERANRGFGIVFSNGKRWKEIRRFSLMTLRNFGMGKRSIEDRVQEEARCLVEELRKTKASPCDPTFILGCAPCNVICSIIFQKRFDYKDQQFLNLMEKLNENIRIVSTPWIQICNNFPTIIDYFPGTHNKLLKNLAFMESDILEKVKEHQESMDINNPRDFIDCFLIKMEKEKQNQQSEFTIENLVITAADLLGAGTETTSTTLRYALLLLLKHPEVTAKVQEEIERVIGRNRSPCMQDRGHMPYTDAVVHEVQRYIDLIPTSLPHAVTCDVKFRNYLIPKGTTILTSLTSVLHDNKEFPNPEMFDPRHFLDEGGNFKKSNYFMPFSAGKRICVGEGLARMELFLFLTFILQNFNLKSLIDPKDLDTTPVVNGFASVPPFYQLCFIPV

Cytochrome P450 1A2 = molecular target: T1, Cytochrome P450 1A2 (Homo sapiens, UniProt P05177);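 note: PubChem cytochrome P450 panel assay, CYP1A2 panel member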
T1 sequence (P05177 whole entry): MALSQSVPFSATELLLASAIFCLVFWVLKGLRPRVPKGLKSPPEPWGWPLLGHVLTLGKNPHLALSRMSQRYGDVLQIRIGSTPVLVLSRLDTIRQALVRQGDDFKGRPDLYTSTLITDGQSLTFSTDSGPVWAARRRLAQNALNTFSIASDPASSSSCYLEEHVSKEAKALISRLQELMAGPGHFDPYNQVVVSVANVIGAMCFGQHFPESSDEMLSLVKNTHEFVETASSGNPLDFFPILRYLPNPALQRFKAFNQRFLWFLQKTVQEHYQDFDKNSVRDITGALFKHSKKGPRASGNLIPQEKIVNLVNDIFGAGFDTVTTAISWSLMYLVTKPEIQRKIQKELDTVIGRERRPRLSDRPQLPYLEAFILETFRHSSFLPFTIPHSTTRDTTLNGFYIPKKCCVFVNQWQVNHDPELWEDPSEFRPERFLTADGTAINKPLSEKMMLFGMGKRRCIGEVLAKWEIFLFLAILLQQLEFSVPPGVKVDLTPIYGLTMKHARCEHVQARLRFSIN

[3] = tested on: Streptococcus sp. 'group A'; assay: Streptococcus pyogenes SK(-)GAS viability under kanamycin – luminescence, BacTiterGlo, confirmation, counter-screen for streptokinase expression inhibitor project, dose response (AID 1900); type: functional, organism-based
Streptococcus = assay: GAS UMAA2166 growth inhibition – luminescence, BacTiterGlo, counter-screen for streptokinase expression inhibitor project, dose response (AID 1915); type: functional, organism-based;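 note: potency for reduction of bacterial viability or growth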

Chain of Cytochrome P450 3A4 (P08684 whole entry): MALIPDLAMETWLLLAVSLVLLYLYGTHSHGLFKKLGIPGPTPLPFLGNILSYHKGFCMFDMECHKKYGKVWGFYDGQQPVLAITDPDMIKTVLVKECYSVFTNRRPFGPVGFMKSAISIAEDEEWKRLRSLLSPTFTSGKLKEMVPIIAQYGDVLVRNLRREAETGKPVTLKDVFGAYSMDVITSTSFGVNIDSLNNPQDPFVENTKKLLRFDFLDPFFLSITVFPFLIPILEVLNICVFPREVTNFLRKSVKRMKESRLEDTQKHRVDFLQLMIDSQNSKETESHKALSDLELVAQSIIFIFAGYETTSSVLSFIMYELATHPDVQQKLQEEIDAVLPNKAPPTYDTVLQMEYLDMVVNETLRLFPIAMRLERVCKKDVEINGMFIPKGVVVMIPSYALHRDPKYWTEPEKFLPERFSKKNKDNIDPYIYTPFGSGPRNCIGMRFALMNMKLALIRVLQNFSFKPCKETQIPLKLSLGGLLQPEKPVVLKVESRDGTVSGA

For O=C(CSc1ncnc2c1cnn2CCc1ccccc1)Nc1ccc(F)cc1, the AC50 (Cytochrome P450 3A4) was 1.41 µM (inconclusive).
For CCOc1ccc2nc(NC(=O)C3CCN(c4cnccn4)CC3)sc2c1, the EC50 [1] was > 60 µM (not active) and the EC50 [2] was 2.48 µM (active).
For C[C@@H](c1ccccc1)N1C(=O)[C@H]2[C@H]3[C@H](O)[C@H](O)C/C(=N/OCc4ccccc4)[C@@H]3CC[C@@H]2C1=O, the AC50 (Cytochrome P450 3A4) was 5.01 µM (inconclusive).
With CCN(C(S)=Nc1ccccc1F)C1CCCCC1 the AC50 (Cytochrome P450 3A4) was 14.1 µM (inconclusive).
For CN(C)C(=O)CSC1c2ccccc2C(=O)N1c1ccccc1 (stereo not given), the AC50 (Cytochrome P450 3A4) was 15.8 µM (inconclusive) and the AC50 (Cytochrome P450 2C9) was 35.5 µM (inconclusive).
With CCC(C(=O)N1CCOCC1)n1c(C(=O)OC)cc2occc21 (stereo not given) the AC50 (Cytochrome P450 3A4) was 14.1 µM (inconclusive) and the AC50 (Cytochrome P450 2C9) was 10 µM (inconclusive).
For O=C(OCc1ccccc1)/C(=C/c1ccc(Cl)cc1)NC(=O)c1ccccc1Cl, the AC50 (Cytochrome P450 2C9) was 1.58 µM (inconclusive) and the AC50 (Cytochrome P450 2C19; read-out: AC50) was 0.316 µM (inconclusive).
In the case of COc1ccc(-c2nc3cnc(N4CCOCC4)nc3n(-c3ccc(OC)cc3)c2=O)cc1, the AC50 (Cytochrome P450 1A2) is reported as 10 µM (inconclusive).
With N#Cc1cccc(-c2nc3cnc(N4CCOCC4)nc3n(C3CC3)c2=O)c1 the AC50 (Cytochrome P450 3A4) was 39.8 µM (inconclusive).
For Oc1ccc(-c2nccc(-c3ccc(Cl)cc3Cl)n2)cc1, the EC50 [1] was > 60 µM (not active) and the EC50 [2] was 1.62 µM (active).
For CN1CCN(S(=O)(=O)c2cnccc2N2CCN(c3cccc(Cl)c3)CC2)CC1, the EC50 [1] was > 60 µM (inconclusive) and the EC50 [2] was 1 µM (active).
In the case of CCN(CC1CCCN(CCc2cccc(OC)c2)C1)C(=O)c1ccc(COC)o1 (stereo not given), the EC50 [1] is reported as 30.9 µM (active) and the EC50 [2] is reported as 0.445 µM (active).
For COc1cccc(C2=NOC(C(=O)NCc3ccccc3)C2)c1 (stereo not given), the AC50 (Cytochrome P450 3A4) was 25.1 µM (inconclusive).
With COc1ccc(COC(=O)N/N=C2/C[C@@H](O)[C@@H](O)[C@@H]3[C@@H]4C(=O)N([C@@H](C)c5ccccc5)C(=O)[C@H]4CC[C@H]23)cc1 the AC50 (Cytochrome P450 3A4) was 3.98 µM (inconclusive).
With COCCn1c(=O)c(-c2cc(F)cc(F)c2)nc2cnc(N3CCNCC3)nc21 the AC50 (Cytochrome P450 3A4) was 20 µM (inconclusive).
In the case of CC(C)CCNC(=O)C(c1cccnc1)N(Cc1ccccc1)C(=O)Cn1nnc2ccccc21 (stereo not given), the EC50 [1] is reported as > 30 µM (not active) and the EC50 [2] is reported as 0.959 µM (active).
In the case of CCN(CC)C(=O)CSc1nc(O)cc(=O)n1CC, the AC50 (Cytochrome P450 3A4) is reported as 14.1 µM (inconclusive).
With COc1ccc2[nH]cc(CCNc3cc(-c4ccc(C(=O)N(C)C)cc4)ncn3)c2c1 the AC50 (Cytochrome P450 2C19; read-out: AC50) was 39.8 µM (inconclusive).
With CCN(CC)C(=O)c1sc2[nH]c(=S)n(-c3ccccc3)c(=O)c2c1C the AC50 (Cytochrome P450 2C9) was 8.91 µM (inconclusive) and the AC50 (Cytochrome P450 2C19) was “inconclusive”.
For c1ccc(NN(Cc2cnccn2)c2ccccc2)cc1, the AC50 (Cytochrome P450 3A4) was 1 µM (inconclusive).
In the case of CO[C@@H]1COC(=O)[C@H]2CCCN2C(=O)[C@@H](C)COC(=O)[C@H](COCc2ccccc2)NC(=O)C/C=C\[C@H]1C, the AC50 (Cytochrome P450 3A4) is reported as 3.98 µM (inconclusive).
With COC(=O)[C@@H]1CC[C@H](C)[C@@H](c2ccc(C)cc2)N1C(=O)c1ccc(/C=N\OC[C@@H]2O[C@H](c3ccccc3)C=C[C@@H]2Oc2ccc(OC)cc2)cc1 the AC50 (Cytochrome P450 3A4) was 3.16 µM (inconclusive).
For Cc1ccccc1C(=O)NC(NCc1ccco1)C(Cl)(Cl)Cl (stereo not given), the AC50 (Cytochrome P450 3A4) was 25.1 µM (inconclusive), the AC50 (Cytochrome P450 1A2) was 14.1 µM (inconclusive) and the AC50 (Cytochrome P450 2C9) was 0.0398 µM (inconclusive).
For CCC(=O)Nc1ccc(NC(=O)CSc2nnnn2-c2cccnc2)cc1C, the AC50 (Cytochrome P450 2C19) was “inconclusive”.
With N[C@@H](Cn1cc(I)c(=O)n(Cc2ccc(C(=O)O)cc2)c1=O)C(=O)O the AC50 (Cytochrome P450 1A2) was 31.6 µM (inconclusive) and the AC50 (Cytochrome P450 2C19; read-out: AC50) was 39.8 µM (inconclusive).
For CSC(=N)N/N=C/c1ccc([N+](=O)[O-])cc1, the AC50 (Cytochrome P450 2C9) was 10 µM (inconclusive).
In the case of C=C(C)[C@H]1CC=C(C)/C(=N/NC(=O)CNc2ccccc2OC)C1, the AC50 (Cytochrome P450 2C19; read-out: AC50) is reported as 11.2 µM (inconclusive).
In the case of COc1ccc(NC(C)C(=O)N/N=C/c2c(O)ccc3ccccc23)cc1 (stereo not given), the EC50 [3] is reported as 1.95 µM (active) and the EC50 (Streptococcus) is reported as 1.25 µM (active).
In the case of O=C(CC(=O)N/N=C\c1c(Cl)cccc1Cl)NCc1ccccc1, the AC50 (Cytochrome P450 3A4) is reported as 12.6 µM (inconclusive) and the AC50 (Cytochrome P450 1A2) is reported as 14.1 µM (inconclusive).
With CCn1c(=O)[nH]c2ccccc21 the AC50 (Cytochrome P450 1A2) was 31.6 µM (inconclusive).
In the case of CCCCCCCCCCCCCCSCC(=O)O [TETRADECYLTHIOACETIC ACID], the AC50 (Cytochrome P450 2C9) is reported as 39.8 µM (inconclusive).
